# Measured values as given in ChEMBL document CHEMBL3885881, “DrugMatrix”.
# Species on record: Rattus norvegicus
# Experiment: DrugMatrix - Regimen: Daily Repeat
# Type: toxicity, organism-based, Sprague-Dawley
# Set-up: regimen Daily Repeat, gender Male, age 6-8 weeks
# Conditions: in vivo, po, route oral GAVAGE, vehicle 100 % WATER; for ABSOLUTE BASOPHIL / ABSOLUTE EOSINOPHIL / ABSOLUTE LYMPHOCYTE / ABSOLUTE MONOCYTE / ABSOLUTE SEGMENTED NEUTROPHIL / BASOPHIL / EOSINOPHIL / ERYTHROCYTE COUNT / HEMATOCRIT / HEMOGLOBIN / LEUKOCYTE COUNT / LYMPHOCYTE / MEAN CORPUSCULAR HEMOGLOBIN / MEAN CORPUSCULAR HEMOGLOBIN CONCENTRATION / MEAN CORPUSCULAR VOLUME / MONOCYTE / NEUTROPHIL / NUCLEATED RED BLOOD CELLS / PLATELET COUNT: tissue Blood; for ALANINE AMINOTRANSFERASE / ALBUMIN / ALKALINE PHOSPHATASE / ASPARTATE AMINOTRANSFERASE / BLOOD UREA NITROGEN / CARBON DIOXIDE / CHLORIDE / CHOLESTEROL / CREATINE PHOSPHOKINASE / CREATININE / GLUCOSE / LACTATE DEHYDROGENASE / LIPASE / PHOSPHORUS / POTASSIUM / SODIUM / TOTAL BILIRUBIN / TOTAL PROTEIN / URIC ACID: tissue Plasma
# [1] = 0 mg/kg, 72 h, dose level Control, time 3 day
# [2] = 0 mg/kg, 120 h, dose level Control, time 5 day
# [3] = 6 mg/kg, 72 h, dose level Low, time 3 day
smiles,measurement,setting,value
CN1CCN(C(=O)OC2c3nccnc3C(=O)N2c2ccc(Cl)cn2)CC1 (centres undefined) [ZOPICLONE],ABSOLUTE BASOPHIL,[1],0 CELLS/uL
same,ABSOLUTE EOSINOPHIL,[1],86.33 CELLS/uL
same,ABSOLUTE LYMPHOCYTE,[1],12090.17 CELLS/uL
same,ABSOLUTE MONOCYTE,[1],166.67 CELLS/uL
same,ABSOLUTE SEGMENTED NEUTROPHIL,[1],1090.17 CELLS/uL
same,BASOPHIL,[1],0%
same,EOSINOPHIL,[1],0.67%
same,ERYTHROCYTE COUNT,[1],5.57 x10E6/uL
same,HEMATOCRIT,[1],35.33%
same,HEMOGLOBIN,[1],13.83 G/DL
same,LEUKOCYTE COUNT,[1],13.43 x10E3/uL
same,LYMPHOCYTE,[1],89.83%
same,MEAN CORPUSCULAR HEMOGLOBIN,[1],24.88 pg
same,MEAN CORPUSCULAR HEMOGLOBIN CONCENTRATION,[1],39.15 G/DL
same,MEAN CORPUSCULAR VOLUME,[1],63.52 fL
same,MONOCYTE,[1],1.17%
same,NEUTROPHIL,[1],8.33%
same,NUCLEATED RED BLOOD CELLS,[1],0 /100WBC
same,PLATELET COUNT,[1],1181.33 x10E3/uL
same,ALANINE AMINOTRANSFERASE,[1],48.33 u/L
same,ALBUMIN,[1],4.1 G/DL
same,ALKALINE PHOSPHATASE,[1],395 u/L
same,ASPARTATE AMINOTRANSFERASE,[1],81.83 u/L
same,BLOOD UREA NITROGEN,[1],15.83 mg/dL
same,CARBON DIOXIDE,[1],24.17 mmol/L
same,CHLORIDE,[1],103.83 MEQ/L
same,CHOLESTEROL,[1],63.67 mg/dL
same,CREATINE PHOSPHOKINASE,[1],372.83 u/L
same,CREATININE,[1],0.18 mg/dL
same,GLUCOSE,[1],173.83 mg/dL
same,LACTATE DEHYDROGENASE,[1],188.33 u/L
same,LIPASE,[1],9.5 u/L
same,PHOSPHORUS,[1],11.95 mg/dL
same,POTASSIUM,[1],5.99 MEQ/L
same,SODIUM,[1],144.43 MEQ/L
same,TOTAL BILIRUBIN,[1],0.15 mg/dL
same,TOTAL PROTEIN,[1],5.95 G/DL
same,URIC ACID,[1],1.82 mg/dL
same,ABSOLUTE BASOPHIL,[2],0 CELLS/uL
same,ABSOLUTE EOSINOPHIL,[2],26.67 CELLS/uL
same,ABSOLUTE LYMPHOCYTE,[2],7583.83 CELLS/uL
same,ABSOLUTE MONOCYTE,[2],131.33 CELLS/uL
same,ABSOLUTE SEGMENTED NEUTROPHIL,[2],674.83 CELLS/uL
same,BASOPHIL,[2],0%
same,EOSINOPHIL,[2],0.33%
same,ERYTHROCYTE COUNT,[2],5.78 x10E6/uL
same,HEMATOCRIT,[2],36.48%
same,HEMOGLOBIN,[2],14.03 G/DL
same,LEUKOCYTE COUNT,[2],8.42 x10E3/uL
same,LYMPHOCYTE,[2],89.83%
same,MEAN CORPUSCULAR HEMOGLOBIN,[2],24.3 pg
same,MEAN CORPUSCULAR HEMOGLOBIN CONCENTRATION,[2],38.52 G/DL
same,MEAN CORPUSCULAR VOLUME,[2],63.15 fL
same,MONOCYTE,[2],1.67%
same,NEUTROPHIL,[2],8.17%
same,NUCLEATED RED BLOOD CELLS,[2],0 /100WBC
same,PLATELET COUNT,[2],1186.67 x10E3/uL
same,ALANINE AMINOTRANSFERASE,[2],50.17 u/L
same,ALBUMIN,[2],4.07 G/DL
same,ALKALINE PHOSPHATASE,[2],367.5 u/L
same,ASPARTATE AMINOTRANSFERASE,[2],81.67 u/L
same,BLOOD UREA NITROGEN,[2],16.17 mg/dL
same,CARBON DIOXIDE,[2],32.33 mmol/L
same,CHLORIDE,[2],101.5 MEQ/L
same,CHOLESTEROL,[2],65.33 mg/dL
same,CREATINE PHOSPHOKINASE,[2],255.33 u/L
same,CREATININE,[2],0.17 mg/dL
same,GLUCOSE,[2],139.33 mg/dL
same,LACTATE DEHYDROGENASE,[2],95 u/L
same,LIPASE,[2],10.5 u/L
same,PHOSPHORUS,[2],10.38 mg/dL
same,POTASSIUM,[2],6.11 MEQ/L
same,SODIUM,[2],145.55 MEQ/L
same,TOTAL BILIRUBIN,[2],0.17 mg/dL
same,TOTAL PROTEIN,[2],5.98 G/DL
same,URIC ACID,[2],0.93 mg/dL
same,ABSOLUTE BASOPHIL,[3],0 CELLS/uL
same,ABSOLUTE EOSINOPHIL,[3],0 CELLS/uL
same,ABSOLUTE LYMPHOCYTE,[3],14318.33 CELLS/uL
same,ABSOLUTE MONOCYTE,[3],218 CELLS/uL
same,ABSOLUTE SEGMENTED NEUTROPHIL,[3],1497 CELLS/uL
same,BASOPHIL,[3],0%
same,EOSINOPHIL,[3],0%
same,ERYTHROCYTE COUNT,[3],5.61 x10E6/uL
same,HEMATOCRIT,[3],35.47%
same,HEMOGLOBIN,[3],13.67 G/DL
same,LEUKOCYTE COUNT,[3],16.03 x10E3/uL
same,LYMPHOCYTE,[3],89.33%
same,MEAN CORPUSCULAR HEMOGLOBIN,[3],24.37 pg
same,MEAN CORPUSCULAR HEMOGLOBIN CONCENTRATION,[3],38.53 G/DL
same,MEAN CORPUSCULAR VOLUME,[3],63.23 fL
same,MONOCYTE,[3],1.33%
same,NEUTROPHIL,[3],9.33%
same,NUCLEATED RED BLOOD CELLS,[3],0 /100WBC
same,PLATELET COUNT,[3],1106.33 x10E3/uL
same,ALANINE AMINOTRANSFERASE,[3],43.67 u/L
same,ALBUMIN,[3],3.9 G/DL
same,ALKALINE PHOSPHATASE,[3],402 u/L
same,ASPARTATE AMINOTRANSFERASE,[3],70.33 u/L
same,BLOOD UREA NITROGEN,[3],14.33 mg/dL
same,CARBON DIOXIDE,[3],25.33 mmol/L
same,CHLORIDE,[3],102 MEQ/L
same,CHOLESTEROL,[3],72.33 mg/dL
same,CREATINE PHOSPHOKINASE,[3],454.67 u/L
same,CREATININE,[3],0.15 mg/dL
same,GLUCOSE,[3],170.33 mg/dL
same,LACTATE DEHYDROGENASE,[3],139 u/L
same,LIPASE,[3],9 u/L
same,PHOSPHORUS,[3],12.8 mg/dL
same,POTASSIUM,[3],6.03 MEQ/L
same,SODIUM,[3],142.73 MEQ/L
same,TOTAL BILIRUBIN,[3],0.2 mg/dL
same,TOTAL PROTEIN,[3],5.63 G/DL
same,URIC ACID,[3],1.97 mg/dL
